From BindingDB's records for doi:10.7270/Q2VX0FC0 (D3R/Abbott, 2016)

Assays:
[1] = biological target: T1, Heat shock protein HSP 90-beta (Homo sapiens, UniProt P08238); assay: Thermofluor Assay
Excerpt: Thermofluor Assay

[2] = biological target: T1, Heat shock protein HSP 90-beta; assay: ITC
Excerpt: ITC

T1 sequence (P08238 whole entry): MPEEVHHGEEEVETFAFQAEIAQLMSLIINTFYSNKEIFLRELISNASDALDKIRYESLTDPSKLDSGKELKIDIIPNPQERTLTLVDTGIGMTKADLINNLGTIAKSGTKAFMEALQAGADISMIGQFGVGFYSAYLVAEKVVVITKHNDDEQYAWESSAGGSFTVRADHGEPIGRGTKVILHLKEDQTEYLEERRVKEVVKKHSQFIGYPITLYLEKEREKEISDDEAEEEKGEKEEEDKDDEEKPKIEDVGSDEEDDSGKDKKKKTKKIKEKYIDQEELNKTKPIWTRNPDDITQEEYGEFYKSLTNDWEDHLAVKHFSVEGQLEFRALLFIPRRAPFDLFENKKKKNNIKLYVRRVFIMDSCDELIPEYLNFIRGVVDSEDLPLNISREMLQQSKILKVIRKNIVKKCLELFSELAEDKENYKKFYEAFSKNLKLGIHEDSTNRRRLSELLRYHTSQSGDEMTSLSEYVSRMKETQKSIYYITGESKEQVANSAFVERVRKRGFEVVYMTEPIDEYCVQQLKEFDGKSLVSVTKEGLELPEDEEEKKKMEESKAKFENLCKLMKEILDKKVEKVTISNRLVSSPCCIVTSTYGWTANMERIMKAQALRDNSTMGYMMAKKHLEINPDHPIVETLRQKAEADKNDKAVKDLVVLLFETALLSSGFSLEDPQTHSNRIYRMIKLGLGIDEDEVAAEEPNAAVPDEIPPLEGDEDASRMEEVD

Row | SMILES | Kd [1] [µM] | Kd [2] [µM]
1 | CCCC(=O)c1cc(O)c(O)c(O)c1 [hsp90_151] | > 100 | 
2 | Nc1nc(Cl)c(/C=N/O)c(-c2ccc(Cl)cc2Cl)n1 [hsp90_87] | 2.25 | 
3 | Cn1c2c([n+](C)c1CCl)C(=O)c1ccccc1C2=O [hsp90_128] | > 100 | 
4 | Nc1nc(-c2ccc(C(F)(F)F)cc2Cl)cc(-c2ccc(C(F)(F)F)cc2Cl)n1 [hsp90_77] | > 100 | 
5 | O=C(c1ccc(O)cc1)c1ccc(O)cc1O [hsp90_176] | 10.6 | 3.11
6 | CCOC(=O)CO/N=C/c1c(Cl)nc(N)nc1-c1ccc(Cl)cc1Cl [hsp90_91] | 11.2 | 
7 | O=C(c1cccc(O)c1)c1ccc(O)cc1O [Polyhydroxy benzophenone, 12] | 28.9 | 11.5
8 | CC(=O)Oc1ccc([N+](=O)[O-])c2ccccc12 [hsp90_165] | > 100 | 
9 | CC(=O)Oc1ccc2c(=O)c(Cc3ccccc3)c(C)oc2c1OC(C)=O [hsp90_174] | > 100 | 
10 | O=C(CCl)NCc1cc(C(=O)c2ccc(OCCO)c(Cl)c2Cl)cc(Cl)c1O [hsp90_171] | > 100 | 
11 | Nc1nc(N)nc(-c2ccccc2Cl)n1 [hsp90_179] | 20.4 | 7.45
12 | Cc1cc(CNC(=O)N2CCN(S(C)(=O)=O)C2=O)nc(N)n1 [hsp90_120] | > 100 | 
13 | O=C(c1ccc(O)cc1)c1cc(Cl)ccc1O [hsp90_164] | 7.51 | 8.33
14 | COc1cccc(OC)c1-c1cc(C)nc(N)n1 [hsp90_70] | 2.28 | 1.48
15 | Cc1cc(-n2nc(C(=O)NCC3COC(C)(C)O3)cc2C)nc(N)n1 (centres undefined) [hsp90_95] | 91 | 64
16 | O=C(c1ccc(O)cc1O)c1ccc(O)c(O)c1O [Polyhydroxy benzophenone, 8] | > 100 | 
17 | Cc1cc(-c2ccc([N+](=O)[O-])cc2Cl)nc(N)n1 [hsp90_73] | 4.53 | 0.393
18 | COc1ccc(-c2cc(-c3ccc(Cl)cc3Cl)nc(N)n2)c(OC)c1 [hsp90_84] | 265 | 
19 | COC(=O)c1cc(-n2c(=O)[nH]c3cc(C(F)(F)F)cc(Cl)c32)c(O)cc1OC [hsp90_13] | > 100 | 

Further lines, results first:

Row | Kd [1] [µM] | Kd [2] [µM] | SMILES
20 |  | 3.06 | O=c1[nH]c2ccccc2n1-c1cc(-c2ccnc3ccccc23)c(O)cc1O [hsp90_23]
21 | 0.376 | 0.0268 | O=c1[nH]c2cc(CNS(=O)(=O)c3cccnc3)ccc2n1-c1cc(Cl)c(O)cc1O [hsp90_44]
22 | 0.172 | 0.0107 | O=c1[nH]c2cc(CNS(=O)(=O)c3ccccc3O)ccc2n1-c1cc(Cl)c(O)cc1O [hsp90_43]
23 | 0.993 | 10.3 | COc1cc(-c2cc(-n3c(=O)[nH]c4ccccc43)c(O)cc2O)cc(OC)c1OC [hsp90_24]
24 | 0.225 | 0.115 | CC(C)c1ccc(S(=O)(=O)NCc2ccc3c(c2)[nH]c(=O)n3-c2cc(Cl)c(O)cc2O)cc1 [hsp90_38]
25 | 94.8 | 54 | O=c1[nH]c2ccccc2n1-c1cc(-c2cccnc2O)c(O)cc1O [hsp90_34]
26 | 0.123 | 0.0686 | CCCc1cc(-n2c(=O)[nH]c3ccccc32)c(O)cc1O [hsp90_12]
27 | > 100 |  | CC1c2cc(-n3c(=O)[nH]c4ccccc43)c(O)cc2OC1(C)C (centres undefined) [hsp90_35]
28 | 0.165 | 0.069 | CCc1cc(-n2c(=O)[nH]c3ccccc32)c(O)cc1O [hsp90_40]
29 | 4.58 | 6.58 | O=c1[nH]c2ccccc2n1-c1cc(-c2ccccc2O)c(O)cc1O [hsp90_10]
